Experiments:
[1] = molecular target: Melatonin receptor (Gallus gallus, UniProt P49288+P51050+P49285); test: Binding affinity towards melatonin receptor using 2-[125I]iodomelatonin as radioligand in chick brain membranes; format: cell membranes, Membrane
[2] = organism: Xenopus laevis; test: Agonistic activity was determined in a pigment aggregation model using cultured melanophores isolated from the neural crest of Xenopus laevis embryos; partial; format: functional; details: frog; filed as partial agonist
[3] = organism: Xenopus laevis; test: Agonistic activity was determined in a pigment aggregation model using cultured melanophores isolated from the neural crest of Xenopus laevis embryos; Partial; format: functional; details: frog; filed as partial agonist
[4] = organism: Xenopus laevis; test: Agonistic activity was determined in a pigment aggregation model using cultured melanophores isolated from the neural crest of Xenopus laevis embryos; agonist; format: functional; details: frog; filed as agonist
[5] = organism: Xenopus laevis; test: Concentration producing half maximal aggregation of pigment granules in the centre of the melanophore isolated from the neural crest of Xenopus laevis embryos was determined; format: functional, frog
[6] = organism: Xenopus laevis; test: Agonistic activity was determined in a pigment aggregation model using cultured melanophores isolated from the neural crest of Xenopus laevis embryoss; agonist; format: functional; details: frog; filed as agonist

Compound `O=C(NCCc1c[nH]c2ccccc12)C1CC1` has a Ki [1] of 2600 nM.

With `O=C(NCCc1c(-c2ccccc2)[nH]c2ccccc12)C(F)(F)F` the Activity [2] was “Partial agonist”.

With `CC(=O)NCCc1c[nH]c2ccccc12` the Ki [1] was 701 nM.

With `CCCC(=O)NCCc1c[nH]c2ccccc12` the Activity [3] was “Partial agonist” and the Ki [1] was 98 nM.

In the case of `CC(=O)NCCc1c(Br)[nH]c2ccccc12`, the Activity [4] is reported as “Agonist” and the Ki [1] is reported as 138 nM.

For `CCC(=O)NCCc1c(-c2ccccc2)[nH]c2ccccc12`, the Activity [4] was “Agonist” and the EC50 [5] was 50 nM.

`O=C(CBr)NCCc1c[nH]c2ccccc12` showed a Ki [1] of 153 nM.

In the case of `O=C(CBr)NCCc1c(Br)[nH]c2ccccc12`, the Activity [4] is reported as “Agonist” and the Ki [1] is reported as 14 nM.

With `COc1ccc2[nH]cc(CCNC(C)=O)c2c1` the Activity [4] was “Agonist”.

For `CC(=O)NCCc1c(Br)[nH]c2cc(Br)ccc12`, the Activity [2] was “Partial agonist” and the Ki [1] was 122 nM.

With `O=C(NCCc1c(Br)[nH]c2cc(Br)ccc12)C1CC1` the Activity [4] was “Agonist” and the Ki [1] was 138 nM.

In the case of `CCCC(=O)NCCc1c(-c2ccccc2)[nH]c2ccccc12`, the Activity [2] is reported as “Partial agonist”.

`O=C(NCCc1c(Br)[nH]c2cc(Br)ccc12)C(F)(F)F` gave a Ki [1] of 367 nM.

`CCCC(=O)NCCc1c(Br)[nH]c2cc(Br)ccc12` was tested, and the Activity [2] was “Partial agonist” and the Ki [1] was 2.3 nM.

For `CCC(=O)NCCc1c[nH]c2ccccc12`, the Ki [1] was 398 nM.

`O=C(NCCc1c[nH]c2ccccc12)C(F)(F)F` was tested, and the Activity [3] was “Partial agonist” and the Ki [1] was 377 nM.

With `CCC(=O)NCCc1c(Br)[nH]c2cc(Br)ccc12` the Ki [1] was 27 nM.

For `CC(=O)NCCc1c(-c2ccccc2)[nH]c2ccccc12`, the EC50 [5] was 70 nM and the Activity [6] was “Agonist”.
